Experimental data from US11401255B2, “Small molecule activators of Parkin enzyme function” (Mayo Foundation for Medical Education and Research, priority 2016, dated 2022).
Where two headings read alike, the source gives them in different places.

Key:
TA 100 = experiment: Ames Test, strain TA 100
Description: The test used amino acid-dependent strains of Salmonella typhimurium and Escherichia coli to detect point mutations which involved substitution, addition or deletion of one or a few DNA base pairs. Point mutations were introduced in the histidine (Salmonella typhimurium) or the tryptophan (Escherichia coli) operon, making the tester strains incapable of producing these amino acids. The test detected mutations that revert the mutations present in the bacteria, restoring the functional capability to synthesize histidine or tryptophan. The revertant bacteria were detected by the ability to grow in the absence of the amino acid required by the parent test strain. A mutagenic potential of a tested compound was assessed by exposing these bacterial strains to different concentrations of the compounds and estimating number of revertant colonies grown in the absence (trace quantities) of the amino acid.
DMSO was used as the negative control.
For each experiment, tester strain cultures were grown overnight in Oxoid nutrient broth #2 at 37° C. with shaking at 235 rpm to a density of 1-2×10^9 colony forming units/mL (OD540˜2).
The tester strain (10 μL of night culture) was mixed with the test agent (10 µL of the DMSO stock) and GM liquid medium (30 μL). The obtained mixture was incubated at room temperature for 5 min in a sterile 1.5 mL tube. Then, to the tube was added 200 μL of molten top agar stored at 44° C. to prevent solidifying. After mixing with a pipette, the mixture was poured onto the surface of a GM agar plate (2.0 mL of GM agar per plate). After solidifying the top agar, the plate was inverted and incubated at 37° C. for 48 hours. Then, results were expressed as number of revertant colonies per plate.

Parkin = Parkin (Homo sapiens (Human), UniProt O60260); experiment: Primary HCI assay of EGFP-Parkin translocation to mitochondria; type: cell-based; details: for activity in EGFP-Parkin translocation to damaged mitochondria: 1 μM; for EC50: primary assay screen, Parkin translocation to mitochondria
Chain of Parkin (O60260 whole entry): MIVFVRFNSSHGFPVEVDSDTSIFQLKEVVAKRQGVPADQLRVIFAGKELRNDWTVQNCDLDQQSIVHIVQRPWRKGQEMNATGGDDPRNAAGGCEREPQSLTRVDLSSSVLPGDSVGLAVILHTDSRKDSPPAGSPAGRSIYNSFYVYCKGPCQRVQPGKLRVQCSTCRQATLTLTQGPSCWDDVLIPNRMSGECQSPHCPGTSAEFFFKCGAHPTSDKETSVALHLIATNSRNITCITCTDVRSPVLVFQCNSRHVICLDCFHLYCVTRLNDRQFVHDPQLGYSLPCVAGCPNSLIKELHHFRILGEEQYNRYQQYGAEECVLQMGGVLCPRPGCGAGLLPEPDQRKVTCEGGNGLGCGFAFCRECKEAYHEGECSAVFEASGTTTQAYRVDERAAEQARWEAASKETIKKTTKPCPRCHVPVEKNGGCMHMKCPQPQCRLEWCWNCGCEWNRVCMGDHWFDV
Method: GFP-Parkin is localized throughout the cell in unstressed cells but translocates to mitochondria when the mitochondrial membrane potential is compromised and Parkin is activated. After automated image acquisition of fixed cells, regions of interest of each cell were defined with the analysis software. […] To quantify the relocalization of GFP-Parkin to mitochondria, the ratio of the GFP intensity in the cytoplasm and the nucleus was calculated. Under non-stressed condition, this ratio is about 1. FIG. 1B is a bar graph showing the results of the assay with a Z factor (Z′) of 0.5-0.8, which indicates its robustness and usefulness as a screening assay. Validation of the assay has been performed by using PINK1 siRNA.
FIGS. 2A-2C show a primary HCI assay with CCCP titration. FIG. 2A is a graphic description of the primary HCI assay of EGFP-Parkin translocation. HeLa cells stably expressing GFP-Parkin were seeded with 1350 cells per well in 384-well plates (25 μL per well). Cells were allowed to attach overnight before drug was added 2× concentrated in a volume of 25 μL in triplicates. After 2 h, 50 μL of a 2× low-dose CCCP (yielding a final concentration of 3.5 μM CCCP) was added to all wells that contained test compounds and for the negative control. For positive control wells, CCCP was added in a final concentration of 10 μM. After 2 h incubation with CCCP, cells were fixed and labeled with Hoechst for at least 1 h before cells were imaged. […] Values were being normalized to negative and positive control values and plotted as % activity. Z′ was calculated for quality control. Positive controls were indicated in green, negative control wells in red. Drugs that lead to more than 50% activity are considered positive (blue).
Functional testing of compounds was performed using an established primary HCI assay for Parkin translocation, which correlates well with enzymatic activation (Fiesel et al., J. Cell Science (2014) 127:3488-3504; Fiesel et al., Human Mutation (2015) 36:774-786). In brief, 1400 HeLa cells stably expressing EGFP-Parkin were seeded into optical 384-well plates (Greiner BioOne) in 25 μL media and allowed to adhere for 40 h. Compounds 1, 2, 3, 4, and 31 were added to the plate as 2× concentrated stocks. Control wells were treated with equal volume of DMSO in media. After 2 h, unless otherwise stated, CCCP was added as 2× concentrated stock with a final assay concentration of 10 μM for PC wells and 3.5 μM for test and NC wells. This low dose of CCCP was experimentally determined by a dose response curve of CCCP to result in no Parkin translocation (FIG. 13). After another 2 h, cells were fixed in 4% paraformaldehyde for 10 min and stained with Hoechst 33342 (1:5000, Invitrogen) before plates were imaged and analyzed.
Image acquisition was performed on a BD Pathway 855 with the Attovision V1.6 software (BD Biosciences). Wells were imaged with a 20× objective using a 2×2 montage with laser autofocus. EGFP exposure time was 0.0175 sec, Hoechst 0.0015 sec. Raw images were not processed and directly analyzed using a build-in ‘RING—2 output’ algorithm. Values were exported and normalized using JMP 11 software and transferred to GraphPad Prism 7 for quality control, graphing and curve fitting for DRCs with a variable slope using four parameters. […] Values were normalized to both PC and NC values from 24 wells each per plate and the Z′ score was calculated. Plates with Z′<0.5 were repeated.

[1] = Caco-2 A-B permeability assay; type: in vitro ADME; details: human
Method: Caco-2 cells were cultivated in 75 cm^2 flasks to 80-90% of confluence according to the ATCC and Millipore recommendations (Millipore protocol note PC1060EN00P) in a humidified atmosphere at 37° C. and 5% CO2. Cells were detached with Trypsin/EDTA solution and re-suspended in the cell culture medium to a final concentration of 2×10^5 cells/mL. 500 μL of the cell suspension was added to each well of an HTS 24-multiwell insert system and 35 mL of prewarmed complete medium was added to the feeder tray. Caco-2 cells were incubated in the multiwell insert system for 10 days before the transport experiments. The medium in the filter plate and feeder tray was changed every other day. After 10 days of cell growth, the integrity of the monolayer was verified by measuring the transepithelial electrical resistance (TEER) for every well using the Millicell-ERS system ohm meter. […] The 24-well insert plate was removed from its feeder plate and placed in a new sterile 24-well transport analysis plate. The medium was aspirated and inserts washed with PBS.
To determine the rate of drug transport in apical (A) to basolateral (B) direction, 300 μL of the test compound solution in buffer (HBSS, 5.6 mM glucose, 10 mM HEPES, pH=7.4) was added into the filter wells and 1000 μL of the same buffer was added to wells in the transport analysis plate. The plates were incubated for 90 min. at 37° C. with shaking at 50 rpm. 75 μL aliquots were taken from the apical and basolateral compartment for LC-MS/MS analysis. All samples for LC-MS/MS analysis were extracted by acetonitrile (×2 volume) followed by protein sedimentation by centrifuging at 10000 rpm for 10 minutes. Supernatants were analyzed using the HPLC system coupled with a tandem mass spectrometer.
The apparent permeability (Papp) was calculated for the Caco-2 permeability assay using the following equation: Papp=(VA/((Area)×(Time))×([drug]acc/[drug]initial,d), where: […]

[2] = Caco-2, pH 7.4, A-B, read-out: Permeability (individual replicates 1, 2)
[3] = Caco-2, pH 7.4, A-B, read-out: Permeability Mean

SMILES	Fold increase (over baseline) (TA 100; TA 100, 50 μM)	Mean ± SD (TA 100; TA 100, 50 μM)	Fold increase (over baseline) (TA 100; TA 100, 100 μM)	Mean ± SD (TA 100; TA 100, 100 μM)	Fold increase (over baseline) (TA 100; TA 100, 200 μM)	Mean ± SD (TA 100; TA 100, 200 μM)	activity in EGFP-Parkin translocation to damaged mitochondria (Parkin)	EC50 (Parkin) [nM]	Papp at 90 min [1, 2] [×10⁻⁶ cm/s]	Papp at 90 min [1, 3] [×10⁻⁶ cm/s]	mutagenic activity (TA 100; TA 100, both 100 and 200 μM)	Papp at 90 min ([1]; Caco-2, A-B, pH=7.4, read-out: Permeability (individual replicates 1, 2)) [×10⁻⁶ cm/s]
O=C(Cn1cnc2c1CCCC2)Nc1ccc(-c2ccccc2)cc1 [Compound 1]	0	0 ± 0 revertant colonies per plate	0	0 ± 0 revertant colonies per plate	0	0 ± 0 revertant colonies per plate	showed activity	371	8.3	10.2		
CC(C)c1nccn1CC(=O)Nc1ccc(-c2ccccc2)cc1 [Compound 2]	1.37	8.5 ± 6.36 revertant colonies per plate	0.97	6 ± 2.83 revertant colonies per plate	1.61	10 ± 0 revertant colonies per plate	showed activity	549	17.9	18.2		
CC(C)(C)Sc1ccc(NC(=O)Cn2ccnc2)cc1 [Compound 3]	0.85	5.5 ± 0.7 revertant colonies per plate	>32	>200 revertant colonies per plate	>48	>300 revertant colonies per plate	showed activity	405	39.5	40.6	mutagenic activity	
O=C(Cn1ccnc1-c1ccccn1)Nc1ccc(-c2ccccc2)cc1 [Compound 4]	0.89	5.5 ± 2.12 revertant colonies per plate	1.2	7.5 ± 3.54 revertant colonies per plate	0.65	4 ± 1.41 revertant colonies per plate	showed activity	164	14.6	15.3		15.9
Cc1nc2c(c(N3CCCN(Cc4ccccc4)CC3)n1)CCCC2 [Compound 31]	1.04	6.5 ± 0.7 revertant colonies per plate	0.97	6 ± 0 revertant colonies per plate	0.97	6 ± 1.41 revertant colonies per plate	showed activity	990	52.8	49		
